Assay results from US7396958B2, “Sulphonamide derivatives, their preparation and their therapeutic application” (Sanofi Aventis, priority 2004, dated 2008).
Where two headings read alike, the source gives them in different places.

What was measured:
human orexin 1 receptors = molecular target: T1, human orexin 1 receptors (Homo sapiens, UniProt O43613); test: in vitro binding: displacement of radio-iodinated orexin A on CHO cell membrane preparation; settings: membrane preparation of CHO cells expressing human orexin 1 receptors, read-out: IC50 OX 1
T1 construct: expressed in transfected cells; host or cells: CHO cells (membrane preparation)
T1 sequence (O43613 1-425): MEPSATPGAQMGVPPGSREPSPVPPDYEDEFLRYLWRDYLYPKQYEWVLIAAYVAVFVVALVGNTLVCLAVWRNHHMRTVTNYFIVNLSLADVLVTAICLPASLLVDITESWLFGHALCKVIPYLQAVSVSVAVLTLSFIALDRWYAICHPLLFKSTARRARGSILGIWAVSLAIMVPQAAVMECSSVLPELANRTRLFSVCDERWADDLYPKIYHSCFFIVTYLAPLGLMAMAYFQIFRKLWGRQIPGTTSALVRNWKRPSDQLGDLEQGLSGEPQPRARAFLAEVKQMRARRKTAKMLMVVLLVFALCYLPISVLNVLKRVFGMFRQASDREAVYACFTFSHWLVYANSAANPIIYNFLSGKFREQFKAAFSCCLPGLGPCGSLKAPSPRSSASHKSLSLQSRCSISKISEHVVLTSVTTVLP
Description: (§1) They were in particular tested as regards their effects. […] This method consists in studying the displacement of radio-iodinated orexin A bound to human orexin 2 receptors expressed in CHO cells. The test is performed on membranes in a Hepes 50 mM, MgCl2 1 mM, CaCl2 25 mM, NaN3 0.025%, bovine serum albumin (BSA) 1% incubation buffer and 100 pM of ligand, for 30 minutes at 25° C. The reaction is quenched by filtration and washing on a Whatman GF/C filter. The non-specific binding is measured in the presence of 10^−6M of human orexin B. The IC50 values (concentration that inhibits 50% of the binding of the radio-iodinated orexin A to its receptors) are low, less than 300 nM, in particular less than 100 nM and more particularly less than 30 nM. The affinity of the compounds according to the invention for the orexin 1 receptors was also studied in a test of in vitro binding according to the same technique using radio-iodinated orexin A as ligand in a membrane preparation of CHO cells expressing the human orexin 1 receptors. The compounds according to the invention show little or no affinity for the orexin 1 receptors.

orexin 2 receptors [1] = molecular target: T2, orexin 2 receptors (Homo sapiens, UniProt O43614); test: in vitro binding: displacement of radio-iodinated orexin A on CHO cell membranes; parameters: expressed in transfected cells; host or cells: CHO cells (membranes); settings: human orexin 2 receptors in CHO cell membranes, 100 pM ligand, 30 minutes at 25° C., read-out: IC50 OX 2
T2 sequence (O43614 1-444): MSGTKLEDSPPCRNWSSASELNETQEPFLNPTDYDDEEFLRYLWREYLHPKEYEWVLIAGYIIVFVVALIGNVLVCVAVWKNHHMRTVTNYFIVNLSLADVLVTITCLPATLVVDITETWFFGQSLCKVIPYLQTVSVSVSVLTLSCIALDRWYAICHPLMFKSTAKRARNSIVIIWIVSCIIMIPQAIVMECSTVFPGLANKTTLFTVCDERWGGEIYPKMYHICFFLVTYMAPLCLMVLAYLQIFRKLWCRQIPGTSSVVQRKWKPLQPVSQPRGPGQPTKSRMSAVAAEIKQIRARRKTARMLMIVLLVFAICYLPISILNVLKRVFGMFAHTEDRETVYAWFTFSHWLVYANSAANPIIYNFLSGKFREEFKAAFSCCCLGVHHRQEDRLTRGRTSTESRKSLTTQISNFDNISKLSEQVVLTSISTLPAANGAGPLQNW
Description: as §1, with “nM.” for “nM. The affinity of the compounds according to the invention for the orexin 1 receptors was also studied in a test of in vitro binding according to the same technique using radio-iodinated orexin A as ligand in a membrane preparation of CHO cells expressing the human orexin 1 receptors. The compounds according to the invention show little or no affinity for the orexin 1 receptors.”

orexin 2 receptors [2] = molecular target: T2, orexin 2 receptors; test: measurement of intracellular calcium (FLIPR), antagonist test against orexin B; type: cell-based; settings: 30 minutes preincubation before addition of 0.25 nM orexin B, Fluo-4 AM, read-out: Measurement of [Ca^2+]i IC50 OX 2 - FLIPR
Description: The agonist or antagonist nature of the compounds is determined in vitro in a test of measurement of intracellular calcium (FLIPR) on a cell preparation expressing the orexin 2 receptors, according to the general technique described in Sullivan et al., Methods Mol. Biol., 1999, vol. 114, 125-133, using 1 μM of Fluo-4 AM as fluorescent calcium indicator.

An IC50 (human orexin 1 receptors) of 1.5 µM, an IC50 (orexin 2 receptors [1]) of 62 nM and an IC50 (orexin 2 receptors [2]) of 19 nM were found for Cc1ccc(S(=O)(=O)N(CC(N)=O)c2ccc(Cl)cc2C(O)c2ccccc2Cl)cc1C (centres unmarked) [Compound 28, N^2-{4-chloro-2-[(2-chlorophenyl)(hydroxy)methyl]phenyl}-N^2-[(3,4-dimethylphenyl)sulfonyl]glycinamide] in this work.

A melting point of 192.5 °C was found for COc1ccc(S(=O)(=O)N(CC(N)=O)c2ccc(Cl)cc2N(C)c2ccccc2)cc1OC [Compound 92, N^2-{4-chloro-2-[methyl(phenyl)amino]phenyl}-N^2-[(3,4-dimethoxyphenyl)sulfonyl]glycinamide] in this work.

For COc1ccc(S(=O)(=O)N(CC(N)=O)c2ccc(Cl)cc2C(O)c2cccc(Cl)c2)cc1OC (centres unmarked) [Compound 44, N^2-{4-chloro-2-[(3-chlorophenyl)(hydroxy)methyl]phenyl}-N^2-[(3,4-dimethoxyphenyl)sulfonyl]glycinamide], the IC50 (human orexin 1 receptors; unit μM) was > 10 µM, the IC50 (orexin 2 receptors [1]) was 85 nM and the IC50 (orexin 2 receptors [2]) was 54 nM.

With CNC(=O)CN(c1ccc(Cl)cc1N(C)c1ccccc1)S(=O)(=O)c1ccc(OC)c(OC)c1 [Compound 124, N^2-{4-chloro-2-[methyl(phenyl)amino]phenyl}-N^2-[(3,4-dimethoxyphenyl)sulfonyl]-N^1-methylglycinamide] the IC50 (human orexin 1 receptors; unit μM) was > 10 µM, the IC50 (orexin 2 receptors [1]) was 50 nM and the IC50 (orexin 2 receptors [2]) was 65 nM.

An IC50 (human orexin 1 receptors) of 4.76 µM, an IC50 (orexin 2 receptors [1]) of 8 nM and a melting point of 184.6 °C were found for COc1ccc(N(CC(N)=O)S(=O)(=O)c2ccc(OC)c(OC)c2)c(Cc2ccccc2Cl)c1 [Compound 138, N^2-[2-(2-Chlorobenzyl)-4-methoxyphenyl]-N^2-[(3,4-dimethoxyphenyl)sulfonyl]glycinamide] in this work. The IC50 (orexin 2 receptors [2]) was 11 nM.

An IC50 (human orexin 1 receptors) of 1.87 µM, an IC50 (orexin 2 receptors [1]) of 9 nM and an IC50 (orexin 2 receptors [2]) of 7 nM were found for COc1ccc(S(=O)(=O)N(CC(N)=O)c2cc(N(C)C)ccc2Cc2c(F)cccc2F)cc1OC [Compound 202, N^2-[2-(2,6-difluorobenzyl)-5-(dimethylamino)phenyl]-N^2-[(3,4-dimethoxyphenyl)sulfonyl]glycinamide] in this work.

A melting point of 158.5 °C was found for COC(=O)CN(c1ccc(Cl)cc1C(O)c1ccccc1Cl)S(=O)(=O)c1ccc(OC)c(OC)c1 (centres unmarked) [Compound 21, Methyl N-{4-chloro-2-[(2-chlorophenyl)(hydroxy)methyl]phenyl}-N-[(3,4-dimethoxyphenyl)sulfonyl]glycinate] in this work.

A melting point of 180.8 °C was found for COc1ccc(S(=O)(=O)N(Cc2nnnn2C)c2ccc(Cl)cc2Cc2c(F)cccc2F)cc1OC [Compound 152, N-[4-chloro-2-(2,6-difluorobenzyl)phenyl]-3,4-dimethoxy-N-[(1-methyl-1H-tetrazol-5-yl)methyl]benzenesulfonamide] in this work.

An IC50 (human orexin 1 receptors) of 0.446 µM, an IC50 (orexin 2 receptors [1]) of 13 nM and an IC50 (orexin 2 receptors [2]) of 5 nM were found for CCOC(=O)CN(c1ccc(Cl)cc1C(O)c1ccccc1Cl)S(=O)(=O)c1ccc(OC)c(OC)c1 (centres unmarked) [Compound 1, Ethyl N-{4-chloro-2-[(2-chlorophenyl)(hydroxy)methyl]phenyl}-N-[(3,4-dimethoxyphenyl)sulfonyl]glycinate] in this work.

A melting point of 94.8 °C was found for COc1ccc(S(=O)(=O)N(Cc2nnn(C)n2)c2ccc(Cl)cc2C(O)c2ccccc2Cl)cc1OC (centres unmarked) [Compound 14, N-{4-chloro-2-[(2-chlorophenyl)(hydroxy)methyl]phenyl}-3,4-dimethoxy-N-[(2-methyl-2H-tetrazol-5-yl)methyl]benzenesulfonamide] in this work.

An IC50 (human orexin 1 receptors) of 0.966 µM, an IC50 (orexin 2 receptors [1]) of 82 nM and an IC50 (orexin 2 receptors [2]) of 26 nM were found for COc1cccc(S(=O)(=O)N(CC(N)=O)c2ccc(Cl)cc2C(O)c2ccccc2Cl)c1 (centres unmarked) [Compound 30] in this work.

A melting point of 86.4 °C was found for COc1ccc(S(=O)(=O)N(CC(N)=O)c2cc(Cl)ccc2Cc2ccccc2Cl)cc1OC [Compound 179, N^2-[5-Chloro-2-(2-chlorobenzyl)phenyl]-N^2-[(3,4-dimethoxyphenyl)sulfonyl]glycinamide] in this work.

A melting point of 151 °C was found for CNC(=O)CN(c1ccc(Cl)cc1C(C)c1ccccc1Cl)S(=O)(=O)c1ccc(OC)c(OC)c1 (centres unmarked) [Compound 187, N^2-{4-chloro-2-[1-(2-chlorophenyl)ethyl]phenyl}-N^2-[(3,4-dimethoxyphenyl)sulfonyl]-N^1-methylglycinamide] in this work.

With CNC(=O)CN(c1ccc(Cl)cc1C(O)c1ccccc1)S(=O)(=O)c1ccc(OC)c(OC)c1 (centres unmarked) [Compound 137, N^2-{4-chloro-2-[hydroxy(phenyl)methyl]phenyl}-N^2-[(3,4-dimethoxyphenyl)sulfonyl]-N^1-methylglycinamide] the IC50 (human orexin 1 receptors; unit μM) was > 10 µM, the IC50 (orexin 2 receptors [1]) was 19 nM and the IC50 (orexin 2 receptors [2]) was 10 nM.

A melting point of 86.8 °C was found for COc1ccc(S(=O)(=O)N(CC(N)=O)c2c(OC)cccc2-c2ccccc2)cc1OC [Compound 312, N˜2˜-[(3,4-dimethoxyphenyl)sulfonyl]-N˜2˜-(3-methoxybiphenyl-2-yl)glycinamide] in this work.

An IC50 (human orexin 1 receptors) of 0.899 µM, an IC50 (orexin 2 receptors [1]) of 20 nM and an IC50 (orexin 2 receptors [2]) of 11 nM were found for COc1ccc(S(=O)(=O)N(Cc2nccn2C)c2ccc(Cl)cc2Cc2ccccc2Cl)cc1OC [Compound 107, N-[4-chloro-2-(2-chlorobenzyl)phenyl]-3,4-dimethoxy-N-[(1-methyl-1H-imidazol-2-yl)methyl]benzenesulfonamide] in this work.
